What follows are compounds tested against T1, IRAK4 (Homo sapiens, UniProt Q9NWZ3) (assay: not given). Settings: read-out: OCI-LY3 DC50; OCI-LY3 cells.
T1 sequence (Q9NWZ3 1-460): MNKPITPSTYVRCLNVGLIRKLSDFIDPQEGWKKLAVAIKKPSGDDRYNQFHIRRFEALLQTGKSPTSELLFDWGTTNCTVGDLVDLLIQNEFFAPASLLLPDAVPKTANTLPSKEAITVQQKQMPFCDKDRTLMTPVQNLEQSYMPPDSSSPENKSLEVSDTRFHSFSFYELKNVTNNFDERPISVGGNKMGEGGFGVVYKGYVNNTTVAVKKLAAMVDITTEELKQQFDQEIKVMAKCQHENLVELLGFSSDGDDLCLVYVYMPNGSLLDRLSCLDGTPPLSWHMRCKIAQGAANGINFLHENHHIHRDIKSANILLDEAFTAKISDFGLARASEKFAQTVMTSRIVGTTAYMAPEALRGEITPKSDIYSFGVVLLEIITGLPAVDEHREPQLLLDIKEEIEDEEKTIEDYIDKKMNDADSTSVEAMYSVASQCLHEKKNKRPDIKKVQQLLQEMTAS
Type: cell-based
Parameters: endogenous in cells; host or cells: OCI-LY3

Row | Compound | DC50
1 | Cn1c(=O)n(C2CCC(=O)NC2=O)c2cccc(C#CCOCC(=O)N3CCC4(CC3)CC(n3cc(NC(=O)c5cnn6ccc(N7C[C@H]8C[C@@H]7CO8)nc56)c(C(F)F)n3)C4)c21 (some centres unmarked) [Example 12] | 5 nM
2 | Cn1c(=O)n(C2CCC(=O)NC2=O)c2cccc(C#CCCCCN3CCC4(CC3)CC(n3cc(NC(=O)c5cnn6ccc(N7C[C@H]8C[C@@H]7CO8)nc56)c(C(F)F)n3)C4)c21 (some centres unmarked) [Example 15] | 1.5 nM
3 | Cn1c(=O)n(C2CCC(=O)NC2=O)c2cccc(C#CCOCC3(C(=O)N4CCC5(CC4)CC(n4cc(NC(=O)c6cnn7ccc(N8C[C@H]9C[C@@H]8CO9)nc67)c(C(F)F)n4)C5)CC3)c21 (some centres unmarked) [Example 7] | 10 nM
4 | Cn1c(=O)n(C2CCC(=O)NC2=O)c2cccc(C#CCOCC(C)(C)C(=O)N3CCC4(CC3)CC(n3cc(NC(=O)c5cnn6ccc(N7C[C@H]8C[C@@H]7CO8)nc56)c(C(F)F)n3)C4)c21 (some centres unmarked) [Example 5] | 28 nM
5 | Cn1c(=O)n(C2CCC(=O)NC2=O)c2cccc(C#CCOCCC(=O)N3CCC4(CC3)CC(n3cc(NC(=O)c5cnn6ccc(N7C[C@H]8C[C@@H]7CO8)nc56)c(C(F)F)n3)C4)c21 (some centres unmarked) [Example 8] | 2 nM

The compounds below were run against T1, IRAK4 (assay: Degradation of IRAK4 in SU-DHL-2 cells (flow cytometry)). Settings: SU-DHL-2 cells, 24 hours incubation; read-out: SU-DHL-2 DC50.
Type: cell-based
Parameters: The degradation level of IRAK4 protein in SU-DHL-2 cell line by the compounds was detected by flow cytometry; endogenous in cells; host or cells: SU-DHL-2; OCI-LY3
Protocol: The degradation level of IRAK4 protein in SU-DHL-2 cell line by the compounds was detected by flow cytometry.
Step 2: On day 1, the cells were seeded at a density of 2 × 10^5 cells per well in 100 µL in a 96-well plate. The compounds were dissolved in DMSO to a final concentration of 10 mM, and then diluted with culture medium at a 1:5 concentration gradient to prepare 10 concentrations. The diluted solutions were added to the cells to obtain a maximum final concentration of 2 µM. Wells containing cells treated with 0.1% DMSO served as the […] The cells were incubated at 37°C in a 5% CO2 incubator for 24 hours.
Step 3: After centrifugation, the cells were washed with FACS buffer. The cells were stained for viability discrimination using the LIVE/DEAD™ Fixable Blue Dead Cell Stain Kit, and surface staining of monocytes was performed with PE Mouse Anti-Human CD14, followed by incubation at 4°C for 30 minutes.
Step 4: After centrifugation, the cells were washed with FACS buffer. Fix buffer I, equal in volume to the cultured cells, was added, and the cells were fixed at 37°C for 10 minutes.
Step 5: After centrifugation, the cells were washed with FACS buffer. 150 µL of Perm III reagent was added, and the cells were incubated at 4°C for 30 minutes to permeabilize the membranes. After centrifugation, the cells were washed with FACS buffer.
Flow cytometry analysis was performed using a flow cytometer.
The flow cytometry data were analyzed using Flowjo software. Data presentation and DC50 (half-maximal degradation concentration) calculation were performed using Prism 8.0.2 (GraphPad).

Row | Compound | DC50
6 | Cn1c(=O)n(C2CCC(=O)NC2=O)c2cccc(C#CCCCCN3CCC4(CC3)CC(n3cc(NC(=O)c5cnn6ccc(N7C[C@H]8C[C@@H]7CO8)nc56)c(C(F)F)n3)C4)c21 (some centres unmarked) [Example 15] | 5 nM
7 | Cn1c(=O)n(C2CCC(=O)NC2=O)c2cccc(C#CCOC3CC(CN4CCC5(CCC(n6cc(NC(=O)c7cnn8ccc(N9C[C@H]%10C[C@@H]9CO%10)nc78)c(C(F)F)n6)CC5)CC4)C3)c21 (some centres unmarked) [Example 40] | 33 nM
8 | Cn1c(=O)n(C2CCC(=O)NC2=O)c2cccc(C#CCOC[C@H]3C[C@H]3CN3CCC4(CC3)CC(n3cc(NC(=O)c5cnn6ccc(N7C[C@H]8C[C@@H]7CO8)nc56)c(C(F)F)n3)C4)c21 (relative stereo) [Example 44] | 5.4 nM
9 | Cn1c(=O)n(C2CCC(=O)NC2=O)c2cccc(C#CCOC3CCC(CN4CCC5(CCC(n6cc(NC(=O)c7cnn8ccc(N9C[C@H]%10C[C@@H]9CO%10)nc78)c(C(F)F)n6)CC5)CC4)CC3)c21 (some centres unmarked) [Example 46] | 13 nM
10 | Cn1c(=O)n(C2CCC(=O)NC2=O)c2cccc(C#CCOCCN3CCC4(CCC(n5cc(NC(=O)c6cnn7ccc(N8C[C@H]9C[C@@H]8CO9)nc67)c(C(F)F)n5)CC4)CC3)c21 (some centres unmarked) [Example 37] | 24 nM

Same assay, conditions: read-out: SU-DHL-2 DC50

Row | Compound | DC50
11 | Cn1c(=O)n(C2CCC(=O)NC2=O)c2cccc(C#CCOC34CCC(C(=O)N5CCC6(CC5)CC(n5cc(NC(=O)c7cnn8ccc(N9C[C@H]%10C[C@@H]9CO%10)nc78)c(C(F)F)n5)C6)(CC3)CC4)c21 (some centres unmarked) [Example 51] | 7 nM
12 | Cn1c(=O)n(C2CCC(=O)NC2=O)c2cccc(C#CCOC3CCN(CC4CCC5(CC4)CCC(n4cc(NC(=O)c6cnn7ccc(N8C[C@H]9C[C@@H]8CO9)nc67)c(C(F)F)n4)CC5)CC3)c21 (some centres unmarked) [Example 68] | 24 nM
13 | Cn1c(=O)n(C2CCC(=O)NC2=O)c2cccc(C#CC(C)(C)N3CC[C@H](C(=O)N4CCC5(CC4)CC(n4cc(NC(=O)c6cnn7ccc(N8C[C@H]9C[C@@H]8CO9)nc67)c(C(F)F)n4)C5)C3)c21 (some centres unmarked) [Example 55] | 7 nM
14 | Cn1c(=O)n(C2CCC(=O)NC2=O)c2cccc(C#CC(C)(C)N3CCC(CN4CCC5(CC4)CC(n4cc(NC(=O)c6cnn7ccc(N8C[C@H]9C[C@@H]8CO9)nc67)c(C(F)F)n4)C5)CC3)c21 (some centres unmarked) [Example 34] | 21 nM
15 | Cn1c(=O)n(C2CCC(=O)NC2=O)c2cccc(C#CCOC3CN(C(=O)N4CCC5(CCC(n6cc(NC(=O)c7cnn8ccc(N9C[C@H]%10C[C@@H]9CO%10)nc78)c(C(F)F)n6)CC5)CC4)C3)c21 (some centres unmarked) [Example 39] | 17 nM
16 | Cn1c(=O)n(C2CCC(=O)NC2=O)c2cccc(C#CCOC3CC(N4CCC5(CCC(n6cc(NC(=O)c7cnn8ccc(N9C[C@H]%10C[C@@H]9CO%10)nc78)c(C(F)F)n6)CC5)CC4)C3)c21 (some centres unmarked) [Example 38] | 68 nM
17 | Cn1c(=O)n(C2CCC(=O)NC2=O)c2cccc(C#CCOc3ccc(CN4CCC5(CC4)CC(n4cc(NC(=O)c6cnn7ccc(N8C[C@H]9C[C@@H]8CO9)nc67)c(C(F)F)n4)C5)cc3)c21 (some centres unmarked) [Example 57] | 22 nM
18 | Cn1c(=O)n(C2CCC(=O)NC2=O)c2cccc(C#CC(C)(C)N3CC[C@@H](C(=O)N4CCC5(CC4)CC(n4cc(NC(=O)c6cnn7ccc(N8C[C@H]9C[C@@H]8CO9)nc67)c(C(F)F)n4)C5)C3)c21 (some centres unmarked) [Example 54] | 17 nM
19 | Cn1c(=O)n(C2CCC(=O)NC2=O)c2cccc(C#CCOC3CCN(C(=O)N4CCC5(CCC(n6cc(NC(=O)c7cnn8ccc(N9C[C@H]%10C[C@@H]9CO%10)nc78)c(C(F)F)n6)CC5)CC4)CC3)c21 (some centres unmarked) [Example 43] | 61 nM
20 | Cn1c(=O)n(C2CCC(=O)NC2=O)c2cccc(C#CCOC3CCC(N4CCC5(CC4)CC(n4cc(NC(=O)c6cnn7ccc(N8C[C@H]9C[C@@H]8CO9)nc67)c(C(F)F)n4)C5)CC3)c21 (some centres unmarked) [Example 33] | 6.5 nM
21 | Cn1c(=O)n(C2CCC(=O)NC2=O)c2cccc(C#CC(C)(C)C(=O)N3CCC4(CC3)CC(n3cc(NC(=O)c5cnn6ccc(N7C[C@H]8C[C@@H]7CO8)nc56)c(C(F)F)n3)C4)c21 (some centres unmarked) [Example 70] | 16 nM
22 | COc1cc2nn(C3CCC4(CC3)CCN(CC3CCN(c5ccc6c(c5)C(=O)N(C5CCC(=O)NC5=O)C6=O)CC3)CC4)cc2cc1NC(=O)c1cnc2cccnn12 (centres unmarked) [Example 67] | 45 nM
23 | Cn1c(=O)n(C2CCC(=O)NC2=O)c2cccc(C#CCC3CCC(N4CCC5(CC4)CC(n4cc(NC(=O)c6cnn7ccc(N8C[C@H]9C[C@@H]8CO9)nc67)c(C(F)F)n4)C5)CC3)c21 (some centres unmarked) [Example 35] | 5 nM

Other lines, results leading:

Row | DC50 | Compound
24 | 1 nM | COc1cc2nn(C3CCC4(CC3)CCN(C3CC(OCC#Cc5cccc6c5n(C)c(=O)n6C5CCC(=O)NC5=O)C3)CC4)cc2cc1C(=O)Nc1cnc2cccnn12 (centres unmarked) [Example 64]
25 | 4 nM | Cn1c(=O)n(C2CCC(=O)NC2=O)c2cccc(C#CCO[C@H]3CC[C@@H](C(=O)N4CCC5(CC4)CC(n4cc(NC(=O)c6cnn7ccc(N8C[C@H]9C[C@@H]8CO9)nc67)c(C(F)F)n4)C5)CC3)c21 (some centres unmarked) [Example 72]
26 | 1 nM | COc1cc2nn(C3CCC4(CC3)CCN(CC3CCN(c5ccc6c(c5)C(=O)N(C5CCC(=O)NC5=O)C6=O)CC3)CC4)cc2cc1NC(=O)c1cnn2cccnc12 (centres unmarked) [Example 48]
27 | 0.5 nM | COc1cc2nn(C3CCC4(CC3)CCN(CC3CCN(c5ccc6c(c5)C(=O)N(C5CCC(=O)NC5=O)C6=O)CC3)CC4)cc2cc1C(=O)Nc1cnc2cccnn12 (centres unmarked) [Example 47]
28 | 1.2 nM | Cn1c(=O)n(C2CCC(=O)NC2=O)c2cccc(C#CCN3CCC(CN4CCC5(CC4)CC(n4cc(NC(=O)c6cnn7ccc(N8C[C@H]9C[C@@H]8CO9)nc67)c(C(F)F)n4)C5)CC3=O)c21 (some centres unmarked) [Example 62]
29 | 4 nM | Cn1c(=O)n(C2CCC(=O)NC2=O)c2cccc(C#CC(C)(C)N3CC(C(=O)N4CCC5(CC4)CC(n4cc(NC(=O)c6cnn7ccc(N8C[C@H]9C[C@@H]8CO9)nc67)c(C(F)F)n4)C5)C3)c21 (some centres unmarked) [Example 50]
30 | 3 nM | Cn1c(=O)n(C2CCC(=O)NC2=O)c2cccc(C#CCN3CC[C@H](C(=O)N4CCC5(CC4)CC(n4cc(NC(=O)c6cnn7ccc(N8C[C@H]9C[C@@H]8CO9)nc67)c(C(F)F)n4)C5)C3)c21 (some centres unmarked) [Example 59]
31 | 5 nM | Cn1c(=O)n(C2CCC(=O)NC2=O)c2cccc(C#CCN3CC(C(=O)N4CCC5(CC4)CC(n4cc(NC(=O)c6cnn7ccc(N8C[C@H]9C[C@@H]8CO9)nc67)c(C(F)F)n4)C5)C3)c21 (some centres unmarked) [Example 58]
32 | 5 nM | Cn1c(=O)n(C2CCC(=O)NC2=O)c2cccc(C#CCO[C@H]3CC[C@H](C(=O)N4CCC5(CC4)CC(n4cc(NC(=O)c6cnn7ccc(N8C[C@H]9C[C@@H]8CO9)nc67)c(C(F)F)n4)C5)CC3)c21 (some centres unmarked) [Example 71]
33 | 2.8 nM | COc1cc2nn(C3CC4(CCN(CC5CC(OCC#Cc6cccc7c6n(C)c(=O)n7C6CCC(=O)NC6=O)C5)CC4)C3)cc2cc1C(=O)Nc1cnc2cccnn12 (centres unmarked) [Example 65]
34 | 4 nM | Cn1c(=O)n(C2CCC(=O)NC2=O)c2cccc(C#CCOC3CCN(CC4CCC5(CC4)CC(n4cc(NC(=O)c6cnn7ccc(N8C[C@H]9C[C@@H]8CO9)nc67)c(C(F)F)n4)C5)CC3)c21 (some centres unmarked) [Example 61]

Same assay, conditions: read-out: SU-DHL-2 DC50; SU-DHL-2 cells, 24 hours incubation

Row | Compound | DC50
35 | Cn1c(=O)n(C2CCC(=O)NC2=O)c2cccc(C#CCOCC(=O)N3CCC4(CC3)CC(n3cc(NC(=O)c5cnn6ccc(N7C[C@H]8C[C@@H]7CO8)nc56)c(C(F)F)n3)C4)c21 (some centres unmarked) [Example 12] | 5 nM
36 | Cn1c(=O)n(C2CCC(=O)NC2=O)c2cccc(C#CCOCC3(C(=O)N4CCC5(CC4)CC(n4cc(NC(=O)c6cnn7ccc(N8C[C@H]9C[C@@H]8CO9)nc67)c(C(F)F)n4)C5)CC3)c21 (some centres unmarked) [Example 7] | 12 nM
37 | Cn1c(=O)n(C2CCC(=O)NC2=O)c2cccc(C#CCOCC(C)(C)C(=O)N3CCC4(CC3)CC(n3cc(NC(=O)c5cnn6ccc(N7C[C@H]8C[C@@H]7CO8)nc56)c(C(F)F)n3)C4)c21 (some centres unmarked) [Example 5] | 27 nM
38 | Cn1c(=O)n(C2CCC(=O)NC2=O)c2cccc(C#CCOCCC(=O)N3CCC4(CC3)CC(n3cc(NC(=O)c5cnn6ccc(N7C[C@H]8C[C@@H]7CO8)nc56)c(C(F)F)n3)C4)c21 (some centres unmarked) [Example 8] | 4 nM

Source: patent EP4656640A1, “IRAK4 DEGRADER AND USE THEREOF” (Shanghai Qilu Pharmaceutical Research and Development …, priority 2023, dated 2024)
